Assay results taken from patent US20230212246A1, “TGF-B AS A THERAPEUTIC TARGET FOR INTRACRANIAL ANEURYSM” (THE BOARD OF REGENTS OF THE UNIVERSITY OF TEXAS SYSTEM, priority 2022, published 2023).

Tests used:
p-Smad2 [1] = assay: TGFβ1 time course of p-Smad2 (Western blot) in HEK293T cells; format: cell-based; conditions: HEK293T cells treated with TGFβ1 at different time points, FIG. 4a
Description: HEK293T cells were maintained in DMEM medium (Corning, 10-013-CV) containing 10% fetal bovine serum (Invitrogen, 10082147), 100 IU penicillin, and 100 μg/ml streptomycin. Transfections of small interfering RNAs and plasmid DNA were performed using lipofectamine 2000 (Life Technologies, 11668027) according to the manufacturer's instructions. Alternatively, for cells such as endothelial cells that are hard to transfect, we will utilize lentiviral system to generate stable cell lines.
(§1) Cells were lysed in 1% Triton lysis buffer and sonicated briefly before centrifuged at 18506 g for 30 min at 4° C. Total cell lysates were added by 2X SDS sample buffer and then subjected to discontinuous SDS-PAGE analysis. Proteins were transferred to nitro-cellulose membranes using a Bio-Rad (Hercules, Calif.) mini transfer apparatus followed by blocking with 5% nonfat milk. Primary antibodies and secondary antibodies were used usually at 1:1000 and 1:10000 dilutions respectively before using an Odyssey system to detect the fluorescence signal.
FIG. 3 is a drawing depicting a representative model of the TGFβ pathway. […] As depicted in FIG. 3, it is possible to monitor the phosphorylation level of Smad2 or Samd3 as a reporter for TGFβ signaling activity. […]

p-Smad2 [2] = assay: TGFβ treatment time course of p-Smad2 in HBMEC; format: cell-based, human; conditions: FIG. 5a
Description: as §1
(§2) FIG. 3 is a drawing depicting a representative model of the TGFβ pathway. […] As depicted in FIG. 3, it is possible to monitor the phosphorylation level of Smad2 or Samd3 as a reporter for TGFβ signaling activity.
(§3) To further investigate a potential role for the TGFβ Signaling pathway in the pathology of aneurysms, specifically IA, we also tested TGFβ treatment in different endothelial cells including HBMEC and HUVEC. HBMEC is a primary brain endothelial cells and HUVEC is primary umbilical vein endothelial cells. […] THSD1 knockdown can block TGFβ signaling.

p-Smad2 [3] = assay: TGFβ treatment time course of p-Smad2 in HUVEC; format: cell-based, human; conditions: HUVEC (cell line not restated), FIG. 5c
Description: as §1, §2, §3

p-Smad2 [4] = assay: Activin treatment time course of p-Smad2 in HBMEC; format: cell-based, human; conditions: HBMEC cells, FIG. 6a
Description: as §1, §2
To evaluate the specificity of the requirement for THSD1 for TGFβ signaling in endothelial cells we also tested Activin treatment. […] FIG. 7 is a schematic illustrating that THSD1 has a thrombospondin domain (TSP1) that interacts with mature TGFβ ligand.

Row | Substance | time at which p-Smad2 reaches plateau (p-Smad2 [1]) | time at which p-Smad2 reaches the maximum level (p-Smad2 [2]) | time at which p-smad2 reaches the highest level (p-Smad2 [3]) | time at which p-smad2 reaches the highest level (p-Smad2 [4])
1 | TGFβ1: TGFβ ligand; polypeptide used to treat cells and induce Smad2 phosphorylation | 60 min | around 40 mins | around 40 mins | –
2 | Activin | – | – | – | around 40 mins
